From patent publication US20230026808A1, “COMPOUNDS, COMPOSITIONS, AND METHODS FOR TREATING ISCHEMIA-REPERFUSION INJURY AND/OR LUNG INJURY” (YALE UNIVERSITY, priority 2019, published 2023)

What was measured:
Type in all cases: cell-based
[1] = test system: primary cultured mouse lung endothelial cells; test: H2O2 on primary cultured mouse lung endothelial cells (TEER, AKT phosphorylation); conditions: H2O2 at low concentrations
[2] = test system: mouse pulmonary endothelial cells; test: TEER of mouse endothelial cells co-cultured with neutrophils; conditions: fMLP-stimulated neutrophils; catalase 100 U/ml
Method: ECIS 8W10E+ arrays (Applied BioPhysics) were coated with 10 μg/ml of poly-D-lysine (PDL) and washed with sterile water. Complete EBM-2 media (300 μl) was added to each well for a quick impedance background check. Subsequently, immortalized mouse pulmonary endothelial cells were seeded in a density of 60,000 cells/well in 300 μl EBM-2 medium in the coated arrays and incubated them at 37° C. in a CO2 incubator. Electrical resistance of the cell layer was recorded continuously on an ECIS system (Applied BioPhysics) until a stable resistance of approximately 600-700 ohms was achieved, after which media were removed from wells and replaced with 100 μl of assay buffer (Hanks buffer with Ca^2+ and Mg^2+0.25% BSA). Cells were allowed to re-equilibrate at 37° C. for 2 hours, before 1 μl of SOD (60 U/ml), catalase (100 U/ml), or mock were added to wells for 30 min followed by addition of 50 μl of mouse neutrophils in assay buffer containing 5 μM fMLP. Data were collected real-time throughout the experiment. All ECIS measurements were analyzed at an AC frequency of 4 kHz, which was identified as the most sensitive frequency for this cell type by frequency scans along an entire frequency range (1 kHz-64 kHz). The TEER values were normalized against those co-cultured with WT neutrophils treated with mock.

[3] = test system: mouse primary lung endothelial cells; test: Bi-layer co-culture of neutrophils with endothelial cells, AKT phosphorylation; conditions: fMLP-stimulated neutrophils; SOD 60 U/ml, catalase 100 U/ml
Method: Mouse primary lung endothelial cells (MLEC) were first plated on the outside of the polycarbonate membrane (25,000 cells/cm^2) of the Transwell inserts (24-well type, 0.4-μm pore size, Corning, Inc. 353095), and placed upside down in the wells of the culture plate. After the cells had adhered, the Transwell inserts were inverted and reinserted into the wells of the plate. The medium was replaced 24 h after seeding with serum-free medium. SOD (60 U/ml), catalase (100 U/ml), or mock were added to the lower chambers 2 h later for 30 min. Mouse neutrophils stimulated with 5 μM fMLP were then plated on the top surface of the insert (6×10^6 cells/cm^2) for 30 min. At the end of the incubation period, neutrophils on the top side of the inserts were removed by cotton swabs, and endothelial cells on the other side of the inserts were lysed with SDS-PAGE sample buffer for Western analysis.

Row | Compound | AKT phosphorylation [1] | trans-endothelial electrical resistance (TEER) [1] | difference in TEER between DKO and WT neutrophil co-culture [2] | phospho-AKT elevation by co-cultured MAP3K2/3 DKO neutrophils [3]
1 | OO [H2O2] | stimulates AKT phosphorylation | enhanced trans-endothelial electrical resistance (TEER) | – | –
2 | catalase | – | – | abrogated | abrogated
